A short description of this series: In vitro transdermal permeation test (Franz horizontal two-chamber diffusion cell, pig ear skin). Type of series: in vitro ADME. To be noted: Examples 33-38, compared with no enhancer; 0.1 g enhancer, 1 mmol rivastigmine salicylate ionic liquid in 2 g adhesive (Example 10); result in words.

Structures are written as SMILES.

For `CCCCCCCC/C=C\CCCCCCCC(=O)O` [油酸], the “promotion of rivastigmine cumulative permeation amount by transdermal absorption enhancer” value was “没有显著促进”.

Regarding `CC1CCC(C(C)C)C(O)C1` (centres unmarked) [薄荷醇], the “promotion of rivastigmine cumulative permeation amount by transdermal absorption enhancer” value is given as “没有显著促进”.

(Values after patent CN114306288A, “一种卡巴拉汀长效经皮吸收贴剂及其制备方法” (priority 2022, dated 2022).)
